Measured values: patent publication US20240050562A1, “INHIBITOR OF CELL PROLIFERATION IN OBINUTUZUMAB RESISTANT CD20-POSITIVE CANCER, AND MEDICINAL COMPOSITION, MEDICINE, PRODUCTION, METHOD FOR INHIBITING CELL PROLIFERATION, THERAPEUTIC METHOD, TYPE II ANTI-CD20 ANTIBODY, COMPOUNDS, COMBINATION OF SAME, ENHANCER AND INDUCER, EACH RELATING THERETO” (Chugai Seiyaku Kabushiki Kaisha, priority 2019, published 2024)
Where a SMILES comes first, the peptide text is derived from it. The star is where a group is joined. Cbz = O=C(OCc1ccccc1)*; CH2F = FC*

What was measured:
[1] = test system: obinutuzumab-directed cell death-tolerant clones 1A2, 1D2, 3A4 (derived from SU-DHL-4)
Method: The human germinal center B-cell-like diffuse large B-cell lymphoma cell line SU-DHL-4 was treated with 100 μg/mL of N-ethyl-N-nitrosourea for 24 hours to randomly introduce gene mutations. Thereafter, obinutuzumab was added to 200 μg/mL, and culturing was carried out at 37° C. in the presence of 5% CO2 for three weeks.
(§1) After four days of culturing at 37° C. in the presence of 5% CO2, the number of viable cells was measured using CellTiter-Glo 3D Cell Viability Assay (Promega). […] The effects of the combined use were assessed by numerical values obtained as follows: login (proportion of cell proliferation when both agents were added)—log10 (proportion of cell proliferation when obinutuzumab was added alone)—log10 (proportion of cell proliferation when the anti-cancer agent was added alone). Here, for the combined use, a numerical value of less than 0 means a supra-additive effect, 0 means an additive effect, and greater than 0 means a sub-additive effect (J Biopharm Stat. 2012; 22(3): 535-543).

[2] = test system: obinutuzumab-directed cell death-tolerant clone 3A4; conditions: obinutuzumab 1 μg/mL + 4-hydroperoxycyclophosphamide 100 nM, doxorubicin 10 nM, vincristine 1 nM or prednisolone 1 μM, four days, <0 supra-additive, 0 additive, >0 sub-additive
Method: as §1

[3] = test system: obinutuzumab-directed cell death-tolerant clone 1D2; assay: combined-use cell proliferation test (CellTiter-Glo 3D), clone 1D2; format: cell-based, human; conditions: obinutuzumab 1 μg/mL + 4-hydroperoxycyclophosphamide 100 nM, doxorubicin 10 nM, vincristine 1 nM or prednisolone 1 μM, four days, <0 supra-additive, 0 additive, >0 sub-additive
Method: as §1

[4] = test system: obinutuzumab-directed cell death-tolerant clone 1A2; conditions: four days; for effect of combined use with obinutuzumab (Bliss independence): log10(both agents) - log10(obinutuzumab alone) - log10(anti-cancer agent alone): obinutuzumab 1 μg/mL + 4-hydroperoxycyclophosphamide 100 nM, doxorubicin 10 nM, vincristine 1 nM or prednisolone 1 μM, <0 supra-additive, 0 additive, >0 sub-additive
Method: as §1
The obinutuzumab-directed cell death-tolerant clone 1A2 was seeded at 1×10^4 cells per well in 96-well plates, and obinutuzumab (0.00015-10 μg/mL) and prednisolone (0.2, 1 μM) were added. After four days of culturing at 37° C. in the presence of 5% CO2, the number of viable cells was measured using CellTiter-Glo 3D Cell Viability Assay (Promega).
(§2) After four days of culturing at 37° C. in the presence of 5% CO2, the number of viable cells was measured using CellTiter-Glo 3D Cell Viability Assay (Promega).
as §2

[5] = test system: obinutuzumab-directed cell death-tolerant clone 1A2; format: cell-based; conditions: Z-VAD-FMK 40 μM added to obinutuzumab 1 μg/mL + doxorubicin 10 nM, 72 hours, FIG. 7
Method: […] After 72 hours of culturing at 37° C. in the presence of 5% CO2, cells were stained with APO-BrdU TUNEL Assay Kit (Thermo Fisher).
After 72 hours of culturing at 37° C. in the presence of 5% CO2, cells were stained with APO-BrdU TUNEL Assay Kit (Thermo Fisher).

[6] = test system: RL parent cell line and ADCC-tolerant cell lines RL-E300-1, RL-E300-2, RL-E300-8, RL-E300-22; assay: ADCC sensitivity (calcein release, CD16(158V)/NK-92 effector cells); format: cell-based, human; conditions: ET ratio 1:1
Method: Obinutuzumab was added at a concentration of 0.0001-100 ng/mL. CD16(158V)/NK-92 cells were added as effector cells to achieve an ET ratio of 1:1 and the cells were incubated at 37° C. for four hours. In addition, for Maximum Lysis, 1% Triton X-100 was added. After the plates were centrifuged and the supernatants were collected, calcein fluorescence was measured using a plate reader. ADCC sensitivity was assessed with the expression (measurement−background)/(Maximum Lysis−background)×100 (%).
The parent RL cell line and the tolerant cell lines were pre-cultured, with prednisolone (10 μM) added, at 37° C. for 72 hours. […] Obinutuzumab was added at a concentration of 1 ng/mL. CD16(158V)/NK-92 cells were added thereto as effector cells to achieve an ET ratio of 1:1, and the cells were incubated at 37° C. for four hours. In addition, for Maximum Lysis, 1% Triton X-100 was added. After the plates were centrifuged and the supernatants were collected, calcein fluorescence was measured using a plate reader. ADCC sensitivity was assessed with the expression (measurement−background)/(Maximum Lysis−background)×100 (%).

[7] = test system: CD20 on RL parent and ADCC-tolerant cell lines; assay: CD20 expression by FACS; format: cell-based, human; conditions: prednisolone 10 μM, 72 hours; parent RL cell line and tolerant cell lines; FIG. 10
Method: The parent RL cell line and the tolerant cell lines were seeded at 4×10^5 cells per plate, prednisolone (10 μM) was added, and the cells were cultured at 37° C. for 72 hours. The cells were collected and stained with a control IgG antibody or an anti-CD20 antibody (BD Biosciences), and analysis of CD20 expression was carried out using FACS Fortessa (Becton Dickinson).

SU-DHL-4 = assay: four-day cell proliferation test, parent cell line; format: cell-based, human; conditions: SU-DHL-4, four-day cell proliferation test

O=P1(N(CCCl)CCCl)NC(OO)CCO1 (centres unmarked) [4-hydroperoxycyclophosphamide]
effect of combined use with obinutuzumab, in words ([1]; all tolerant clones, combined with obinutuzumab 1 μg/mL, four days): approximately additive effects | effect of combined use with obinutuzumab (Bliss independence): log10(both agents) - log10(obinutuzumab alone) - log10(anti-cancer agent alone) [2]: 0.00 | effect of combined use with obinutuzumab (Bliss independence): log10(both agents) - log10(obinutuzumab alone) - log10(anti-cancer agent alone) [3]: 0.02 | effect of combined use with obinutuzumab (Bliss independence): log10(both agents) - log10(obinutuzumab alone) - log10(anti-cancer agent alone) [4]: −0.03

COC(=O)C[C@H](NC(=O)[C@H](C)NC(=O)[C@@H](NC(=O)OCc1ccccc1)C(C)C)C(=O)CF [Z-VAD-FMK] (Cbz-Val-Ala-Asp(OMe)-CH2F)
DNA fragmentation (TUNEL) induced by obinutuzumab and doxorubicin, with pan caspase inhibitor [5]: suppressed | cell proliferation ratio with pan caspase inhibitor ([4]; Z-VAD-FMK 40 μM added to obinutuzumab 0.1, 1 μg/mL + doxorubicin 10 nM, FIG. 8): suppressed the doxorubicin-enhanced inhibitory activity of obinutuzumab on cell proliferation

C[C@]12C=CC(=O)C=C1CC[C@@H]1[C@@H]2[C@@H](O)C[C@@]2(C)[C@H]1CC[C@]2(O)C(=O)CO [prednisolone]
ADCC sensitivity after prednisolone pre-treatment ([6]; prednisolone 10 μM 72 hours pre-culture, then obinutuzumab 1 ng/mL, parent and tolerant cell lines, FIG. 11): enhances ADCC sensitivity | CD20 expression [7]: enhances CD20 expression | effect of combined use with obinutuzumab (Bliss independence): log10(both agents) - log10(obinutuzumab alone) - log10(anti-cancer agent alone) [3]: −0.10

CC[C@]1(O)C[C@H]2CN(CCc3c([nH]c4ccccc34)[C@@](C(=O)OC)(c3cc4c(cc3OC)N(C=O)[C@H]3[C@@](O)(C(=O)OC)[C@H](OC(C)=O)[C@]5(CC)C=CCN6CC[C@]43[C@@H]65)C2)C1 [vincristine]
effect of combined use with obinutuzumab (Bliss independence): log10(both agents) - log10(obinutuzumab alone) - log10(anti-cancer agent alone) [3]: −0.10 | effect of combined use with obinutuzumab (Bliss independence): log10(both agents) - log10(obinutuzumab alone) - log10(anti-cancer agent alone) [4]: −0.35

obinutuzumab: glycoengineered, genetically recombinant humanized anti-CD20 monoclonal antibody, type II anti-CD20 antibody
obinutuzumab concentration for 50% cell proliferation inhibition [1]: at least 200 μg/mL | ADCC sensitivity of ADCC-tolerant cell lines compared with the parent cell line ([6]; obinutuzumab 0.0001-100 ng/mL, four hours, FIG. 9): significant reduction in ADCC sensitivity | obinutuzumab concentration for 50% cell proliferation inhibition (SU-DHL-4): 0.037 µg/mL
